In brackets after ≈: the same amount, converted by molar mass.
Key:
Type in all cases: functional
Candida dubliniensis [1] = test: […] activity against Candida dubliniensis isolate SA121 of Cd25 fingerprint group 3 and ITS genotype 4 by CLSI M27-A2 method
Candida dubliniensis [2] = test: […] activity against Candida dubliniensis isolate SA118 of Cd25 fingerprint group 3 and ITS genotype 3 by CLSI M27-A2 method
Candida dubliniensis [3] = test: […] activity against Candida dubliniensis isolate SA113 of Cd25 fingerprint group 3 and ITS genotype 4 by CLSI M27-A2 method
Candida dubliniensis [4] = test: […] activity against Candida dubliniensis isolate SA109 of Cd25 fingerprint group 3 and ITS genotype 3 by CLSI M27-A2 method
Candida dubliniensis [5] = test: […] activity against Candida dubliniensis isolate SA108 of Cd25 fingerprint group 3 and ITS genotype 3 by CLSI M27-A2 method
Candida dubliniensis [6] = test: […] activity against Candida dubliniensis isolate SA103 of Cd25 fingerprint group 3 and ITS genotype 3 by CLSI M27-A2 method
Candida dubliniensis [7] = test: […] activity against Candida dubliniensis isolate SA107 of Cd25 fingerprint group 3 and ITS genotype 3 by CLSI M27-A2 method
Candida dubliniensis [8] = test: […] activity against Candida dubliniensis isolate SA100 of Cd25 fingerprint group 3 and ITS genotype 3 by CLSI M27-A2 method
Candida dubliniensis [9] = test: […] activity against Candida dubliniensis isolate Eg207 of Cd25 fingerprint group 3 and ITS genotype 4 by CLSI M27-A2 method
Candida dubliniensis [10] = test: […] activity against Candida dubliniensis isolate Eg202 of Cd25 fingerprint group 3 and ITS genotype 4 by CLSI M27-A2 method
Candida dubliniensis [11] = test: […] activity against Candida dubliniensis isolate Eg201 of Cd25 fingerprint group 3 and ITS genotype 4 by CLSI M27-A2 method
Candida dubliniensis [12] = test: […] activity against Candida dubliniensis isolate Eg200 of Cd25 fingerprint group 3 and ITS genotype 4 by CLSI M27-A2 method
Candida dubliniensis [13] = test: […] activity against Candida dubliniensis isolate p7718 of Cd25 fingerprint group 3 and ITS genotype 4 by CLSI M27-A2 method
Candida dubliniensis [14] = test: […] activity against Candida dubliniensis isolate p6785 of Cd25 fingerprint group 2 and ITS genotype 3 by CLSI M27-A2 method
Candida dubliniensis [15] = test: […] activity against Candida dubliniensis isolate p7276 of Cd25 fingerprint group 2 and ITS genotype 3 by CLSI M27-A2 method
Candida dubliniensis [16] = test: […] activity against Candida dubliniensis isolate Eg206 of Cd25 fingerprint group 1 and ITS genotype 1 by CLSI M27-A2 method
Candida dubliniensis [17] = test: […] activity against Candida dubliniensis isolate Eg203 of Cd25 fingerprint group 1 and ITS genotype 1 by CLSI M27-A2 method
Candida dubliniensis [18] = test: […] activity against Candida dubliniensis isolate SA115 of Cd25 fingerprint group 1 and ITS genotype 1 by CLSI M27-A2 method
Candida dubliniensis [19] = test: […] activity against Candida dubliniensis isolate SA105 of Cd25 fingerprint group 1 and ITS genotype 1 by CLSI M27-A2 method
Candida dubliniensis [20] = test: […] activity against Candida dubliniensis isolate SA101 of Cd25 fingerprint group 1 and ITS genotype 1 by CLSI M27-A2 method
Candida dubliniensis [21] = test: […] activity against Candida dubliniensis isolate CD36b of Cd25 fingerprint group 1 and ITS genotype 1 by CLSI M27-A2 method

**Q.** Which results are given for O=c1[nH]cc(F)c(=O)[nH]1 [FLUOROURACIL]?
**A.** MIC (Candida dubliniensis [1]): 32 µg/mL (≈ 246 µM); MIC (Candida dubliniensis [2]): 32 µg/mL (≈ 246 µM); MIC (Candida dubliniensis [3]): 32 µg/mL (≈ 246 µM); MIC (Candida dubliniensis [4]): 8 µg/mL (≈ 61.5 µM); MIC (Candida dubliniensis [5]): 32 µg/mL (≈ 246 µM); MIC (Candida dubliniensis [6]): 32 µg/mL (≈ 246 µM); MIC (Candida dubliniensis [7]): 32 µg/mL (≈ 246 µM); MIC (Candida dubliniensis [8]): 32 µg/mL (≈ 246 µM); MIC (Candida dubliniensis [9]): 32 µg/mL (≈ 246 µM); MIC (Candida dubliniensis [10]): 32 µg/mL (≈ 246 µM); MIC (Candida dubliniensis [11]): 32 µg/mL (≈ 246 µM); MIC (Candida dubliniensis [12]): 8 µg/mL (≈ 61.5 µM); MIC (Candida dubliniensis [13]): 16 µg/mL (≈ 123 µM); MIC (Candida dubliniensis [14]): 16 µg/mL (≈ 123 µM); MIC (Candida dubliniensis [15]): 8 µg/mL (≈ 61.5 µM); MIC (Candida dubliniensis [16]): 32 µg/mL (≈ 246 µM); MIC (Candida dubliniensis [17]): 16 µg/mL (≈ 123 µM); MIC (Candida dubliniensis [18]): 32 µg/mL (≈ 246 µM); MIC (Candida dubliniensis [19]): 32 µg/mL (≈ 246 µM); MIC (Candida dubliniensis [20]): 16 µg/mL (≈ 123 µM); MIC (Candida dubliniensis [21]): 32 µg/mL (≈ 246 µM)

Source: ChEMBL document CHEMBL1649254, “A Ser29Leu substitution in the cytosine deaminase Fca1p is responsible for clade-specific flucytosine resistance in Candida dubliniensis” (2009)
